Data as given in patent US10519107B2, “Sulfonamide compounds and their use as STAT5 inhibitors” (Governing Council of the University of Toronto, priority 2014, dated 2019).
Entries after “also recorded” stand apart in the source; their conditions may differ.

Columns and labels:
wildtype STAT1 protein = biological target: T1, wildtype STAT1 protein (Homo sapiens, UniProt P42224); assay: Fluorescence polarization competitive binding, STAT1; conditions: FP; read-out: IC50, disruption of phosphopeptide-STAT1 complex
T1 sequence (P42224 1-750): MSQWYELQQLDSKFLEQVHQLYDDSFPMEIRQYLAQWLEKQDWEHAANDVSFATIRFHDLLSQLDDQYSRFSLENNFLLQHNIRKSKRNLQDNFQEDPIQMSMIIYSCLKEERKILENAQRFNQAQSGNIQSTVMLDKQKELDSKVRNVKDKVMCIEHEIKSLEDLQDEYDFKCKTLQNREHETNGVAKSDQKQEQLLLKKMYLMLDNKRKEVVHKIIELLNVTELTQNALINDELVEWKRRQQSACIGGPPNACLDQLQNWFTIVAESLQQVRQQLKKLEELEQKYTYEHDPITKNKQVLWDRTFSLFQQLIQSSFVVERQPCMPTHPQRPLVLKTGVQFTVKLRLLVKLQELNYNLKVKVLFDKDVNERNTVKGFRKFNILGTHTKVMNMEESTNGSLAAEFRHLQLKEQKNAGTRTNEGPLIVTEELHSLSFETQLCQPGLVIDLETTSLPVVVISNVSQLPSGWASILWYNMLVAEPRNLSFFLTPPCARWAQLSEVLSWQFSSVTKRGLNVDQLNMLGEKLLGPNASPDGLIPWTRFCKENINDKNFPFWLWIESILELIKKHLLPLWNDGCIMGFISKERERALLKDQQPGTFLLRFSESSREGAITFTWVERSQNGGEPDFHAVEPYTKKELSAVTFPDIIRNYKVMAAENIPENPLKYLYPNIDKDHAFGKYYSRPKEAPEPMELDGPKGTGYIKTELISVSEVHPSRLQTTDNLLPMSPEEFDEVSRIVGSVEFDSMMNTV

STAT3 = STAT3 (Homo sapiens, UniProt P40763); assay: SPR binding, His-tagged STAT3; conditions: 25° C., Langmuir 1:1 binding model
Procedure: (§1) Interactions of His-tagged STAT3 and STAT5 with small molecules were investigated using SPR spectroscopy. The binding experiments were carried on a ProteOn XPR36 (Bio-Rad) biosensor at 25° C. using the HTE sensor chip (Bio-Rad, Ontario, Canada). The flow cells of the sensor chip were loaded with a nickel solution at 30 μL/min for 120 s to saturate the Tris-NTA surface with Ni(II) ions. […] When the injection of the compounds was completed, running buffer was allowed to flow over the immobilized substrates for the non-specifically bound inhibitors to dissociate for 600 s. Following dissociation of the compounds, the chip surface was regenerated with an injection of 1 M NaCl at a flow rate of 100 μL/min for 18 s. Interspot channel reference was used for non-specific binding corrections and the blank channel used with each analyte injection served as a double reference to correct for possible baseline drift. Data were analysed using ProteOn Manager Software version 3.1.

[1] = tested on: MV-4;11 (FLT3-ITD) AML cells; assay: CellTiter-Blue cell viability assay, MV-4;11; assay type: cell-based, Human
Procedure: (§2) Human erythroleukemia K562 and MV-4-11 cells were cultured in Iscove's modified dulbecco's medium (Gibco) supplemented with 10% FBS (Sigma). Breast carcinoma lines MDA-MB-231 and MDA-MB-468 were grown in dulbecco's modified eagles medium (DMEM) supplemented with 10% FBS (sigma). For downregulation of STAT5 activity, cells were treated with 5, 10, 15, 20 μM of 13a-d STAT5 compounds, for 3 h and 5 h time points. As a control, cells were treated with the DMSO alone.
Cell viability was assessed following treatment at various concentrations of inhibitor (0.78-50 μM) using a CellTiter-Blue cell viability assay (72 hours).

[2] = Metabolic stability in pooled human liver s9 fractions with NADPH; assay type: in vitro ADME; conditions: 60 min
Procedure: For the pooled s9 fractions, solution of the s9 fraction along with NADPH was added to each well. […] The positive control used in the assay was Verapamil, a known drug to be metabolized by liver enzymes. The reaction was started by the addition of 13a and performed in duplicate. Aliquots were taken from the reaction solution at 0 min and 60 min. The reaction was stopped by the addition of cold methanol. Samples were then analyzed through LC-MS/MS to determine the metabolic profile.

STAT5 = biological target: T2, STAT5; conditions: SPR, 25° C., Langmuir 1:1 binding model; read-out: KD (koff/kon) STAT5
T2 construct: rows headed: KD (koff/kon) STAT5
Procedure: as §1

[3] = Metabolic stability in mouse hepatocytes; assay type: in vitro ADME; conditions: 120 min
Procedure: (§3) 13a was then evaluated within intact human and mouse hepatocytes. Like the s9 fractions, Verapamil was used as a positive control in the assay. Cryopreserved hepatocytes were thawed and plated to a working cell density of 0.5×10^6 viable cell/mL.

[4] = tested on: MCL-1, MYC, cleaved PARP-1, Caspase-3; assay: Western blotting of apoptosis markers and STAT5 transcriptional targets in K562 cells
Procedure: Proteins were extracted using RIPA buffer with protease and phosphates inhibitors and a careful protein determination were preformed (BCA protein assay kit, Pierce). […] The membranes were blocked with 5% nonfat milk for at least 1 h followed by an overnight incubation in primary antibody.
Downstream of STAT5, modulation of the STAT5 transcriptional targets, MCL-1, CYCLIND1/D2 and MYC was assessed.

[5] = tested on: MDA-MB-231 breast cancer cells; assay: Cell viability, MDA-MB-231; assay type: cell-based
Procedure: Breast carcinoma lines MDA-MB-231 and MDA-MB-468 were grown in dulbecco's modified eagles medium (DMEM) supplemented with 10% FBS (sigma). […] As a control, cells were treated with the DMSO alone.

[6] = tested on: phosphorylated STAT5 (Y694); assay: Western blotting of pSTAT5 in K562 cells; assay type: cell-based, Human; conditions: K562, 5 hrs
Procedure: as §2

[7] = Metabolic stability in human hepatocytes; assay type: in vitro ADME; conditions: 120 min
Procedure: as §3

[8] = assay type: in vitro ADME; conditions: mouse
Source text: Within these studies, a series of phase I and phase II metabolites within mouse hepatocytes were identified. […] Each peak from the initial mass spectrum is rerun through a tandem mass spec to identify the major peak along with the corresponding fractionation patterns of that metabolite. […] Peak 2 on the other hand is a combination of both phase I and phase II metabolism. […] Most likely, we deduced the acetylation is occurring at the acid position of the salicylic acid moiety, FIG. 11.
Based on the fragmentation pattern, the most likely site of oxidation could reside on the glycine core or the benzyl ring of the salicylic acid, FIG. 12.

MCL-1, cleaved PARP-1 = assay: Western blotting of apoptosis and MCL-1 in MV-4;11 cells; assay type: cell-based, Human
Source text: Correspondingly, western blot analysis for protein levels of pSTAT5 and downstream target gene expression were also investigated within the AML cell line, MV-4; 11.

Chain of STAT3 (P40763 whole entry): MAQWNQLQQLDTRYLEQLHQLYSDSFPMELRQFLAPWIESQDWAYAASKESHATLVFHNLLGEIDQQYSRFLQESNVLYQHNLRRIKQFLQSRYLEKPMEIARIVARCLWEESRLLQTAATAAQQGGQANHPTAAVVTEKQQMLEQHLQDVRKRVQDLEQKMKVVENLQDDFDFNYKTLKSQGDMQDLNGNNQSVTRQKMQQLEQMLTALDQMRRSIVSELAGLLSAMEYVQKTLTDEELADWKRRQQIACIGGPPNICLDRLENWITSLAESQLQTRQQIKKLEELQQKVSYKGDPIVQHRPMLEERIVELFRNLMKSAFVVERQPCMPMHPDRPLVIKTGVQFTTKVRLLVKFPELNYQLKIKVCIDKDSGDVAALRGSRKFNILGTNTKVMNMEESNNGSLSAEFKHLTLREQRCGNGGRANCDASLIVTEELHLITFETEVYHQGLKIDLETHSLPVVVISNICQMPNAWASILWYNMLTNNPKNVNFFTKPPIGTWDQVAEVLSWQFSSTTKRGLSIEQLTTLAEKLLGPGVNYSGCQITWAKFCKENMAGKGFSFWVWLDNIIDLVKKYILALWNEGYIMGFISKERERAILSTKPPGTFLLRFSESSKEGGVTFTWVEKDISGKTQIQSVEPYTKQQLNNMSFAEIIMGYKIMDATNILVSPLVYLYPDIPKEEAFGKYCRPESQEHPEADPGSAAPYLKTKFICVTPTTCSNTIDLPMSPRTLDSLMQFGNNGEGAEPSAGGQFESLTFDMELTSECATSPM

## CC(C)(C)c1cc(CN(C(=O)CN(Cc2ccc(Cl)cc2)S(=O)(=O)c2c(F)c(F)c(F)c(F)c2F)c2ccc(C(=O)O)c(O)c2)cc(C(C)(C)C)c1 [Compound 13a, 4-(2-((N-(4-chlorobenzyl)-2,3,4,5,6-pentafluorophenyl)sulfonamido)-N-(3,5-di-tert-butylbenzyl)acetamido)-2-hydroxybenzoic Acid]
Wildtype STAT1 protein
  IC50: > 150000 nM
STAT3
  Kd: 287 ± 29 nM
[1]; 10 μM
  effect on MV-4;11 cells: abolished
[1]; Homo sapiens, MV4-11, 72 hours, CellTiter-Blue
  IC50: 3500 nM
[2]
  recovered in human liver s9 (HLS9) fractions: 59.82%
STAT5
  Kd: 41.9 ± 4 nM
[3]
  recovered in mouse hepatocytes: 53.37%
[3]; boiled hepatocytes
  recovered in boiled mouse hepatocytes (negative control): ~85%
[4]; K562, 5 hrs
  MYC (c-MYC) expression: dose-dependant decreases; also recorded: dose-dependent decreases
[4]; K562, 24 hrs, 15 μM
  MCL-1 expression: complete knockdown
  apoptosis (cleaved PARP-1, Caspase-3): undergo cell death
[5]
  less cytotoxic in MDA-MB-231 than in high pSTAT5 leukemic cell line: 3 fold
[6]
  levels of phosphorylated STAT5 (Y694): decreased pSTAT5 in a dose dependant manner and ablated pSTAT5 above 10 μM
  total STAT5 concentration or cleavable PARP-1: no change
[7]
  recovered in human hepatocytes: 68.56%
[7]; boiled hepatocytes
  recovered in boiled human hepatocytes (negative control): ~85%
[8]; 240 min
  intact compound recovered: majority of intact 13a is recovered
[8]; 4 h
  glutathione derivatives, collective share of metabolites recovered: 10%
  parent compound recoverable: > 85%
MCL-1, cleaved PARP-1; MV-4;11, 10 μM, 24 h
  downstream target MCL-1: complete knockdown
MCL-1, cleaved PARP-1; MV-4;11, 24 h
  apoptosis: initiation of apoptosis was observed
